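Assay format: 96-well plates, 48-hour exposure. TGI is the concentration that stops growth completely.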
Assays:
Assay in all cases: NCI-60 cell line screen, 48 h
[1] = test system: LXFL 529 NSCLC
[2] = test system: SNB-78 CNS
[3] = test system: KM20L2 colon
[4] = test system: DMS 273 small cell lung
[5] = test system: DLD-1 colon
[6] = test system: XF 498 CNS
[7] = test system: RXF-631 renal
[8] = test system: MDA-N
[9] = test system: DMS 114 small cell lung

Compound: CC1(C)C(=O)CCC(=O)C(C)(C)C2=CC=C(O2)C(C)(C)C(=O)CCC(=O)C(C)(C)C2=CC=C1O2
- TGI [1]: > 100 µM
- TGI [2]: > 100 µM
- TGI [3]: > 100 µM
- TGI [4]: > 100 µM

Compound: COc1ccc2oc(-c3cc4cc(OC)ccc4o3)cc2c1
- TGI [1]: > 100 µM
- TGI [5]: > 100 µM
- TGI [2]: > 100 µM
- TGI [6]: > 100 µM
- TGI [7]: > 100 µM
- TGI [3]: > 100 µM
- TGI [4]: > 100 µM

Compound: Nc1nc2c(c(=O)[nH]1)N=C(COP(=O)(O)OP(=O)(O)O)CN2
- TGI [8]: > 100 µM

Compound: CC(C)(C)C1CCP(=O)(c2ccccc2)CC1 (stereo not drawn)
- TGI [1]: > 100 µM
- TGI [5]: > 100 µM
- TGI [2]: > 100 µM
- TGI [6]: > 100 µM
- TGI [9]: > 100 µM
- TGI [3]: > 100 µM
- TGI [4]: > 100 µM

Compound: O=C(O)CC1C(=O)OC2C3COC(=O)c4cc(O)c(O)c(O)c4-c4c(cc(O)c(O)c4O)C(=O)OC2C(OC(=O)c2cc(O)c(O)c4c2C1C(O)C(=O)O4)C(OC(=O)c1cc(O)c(O)c(O)c1)O3 (stereo not drawn)
- TGI [8]: 50.1 µM

Compound: Cc1cn(C2CC(N=[N+]=[N-])C(CO)O2)c(=O)[nH]c1=O (stereo not drawn)
- TGI [8]: > 1000 µM

Compound: COc1cccc(C(C#N)NC23CC4CC(CC(C4)C2)C3)c1 (stereo not drawn)
- TGI [8]: > 100 µM

Compound: Cc1ccc(C)c(NC(=O)C(=O)CC(=O)c2cccc3ccccc23)c1
- TGI [1]: > 100 µM
- TGI [5]: > 100 µM
- TGI [2]: > 100 µM
- TGI [7]: > 100 µM
- TGI [9]: > 100 µM
- TGI [3]: > 100 µM
- TGI [4]: > 100 µM

Compound: O=C(O)c1ccccc1-c1ccccc1C(=O)Nc1ccc2c(c1)Cc1ccccc1-2
- TGI [8]: 77.1 µM

Compound: Cc1ccc2nc3sc(=O)sc3nc2c1
- TGI [8]: 32 µM

Compound: CCOC(=O)C/C(N)=C(\C#N)C(=O)OCC
- TGI [1]: > 100 µM
- TGI [5]: > 100 µM
- TGI [2]: > 100 µM
- TGI [6]: > 100 µM
- TGI [7]: > 100 µM
- TGI [9]: > 100 µM
- TGI [3]: > 100 µM
- TGI [4]: > 100 µM

Compound: CC1=C(C(=O)Nc2cccc(C(F)(F)F)c2)C(c2ccccc2F)C(C(=O)Nc2cccc(C(F)(F)F)c2)=C(C)N1
- TGI [1]: 19.2 µM
- TGI [5]: 20.3 µM
- TGI [2]: 65.6 µM
- TGI [6]: 14.6 µM
- TGI [7]: 23.2 µM
- TGI [9]: 14.2 µM
- TGI [3]: 18.4 µM

Compound: O=C(O)CN(CC(=O)O)c1ccccc1
- TGI [8]: > 100 µM

Compound: CN(C(=O)C12C3C4C1C1C2C3C41C(=O)N(C)C(C)(C)C)C(C)(C)C (stereo not drawn)
- TGI [1]: > 50 µM
- TGI [2]: > 50 µM
- TGI [6]: > 50 µM
- TGI [7]: > 50 µM
- TGI [9]: > 50 µM
- TGI [3]: > 50 µM
- TGI [4]: > 50 µM

Compound: O=S1c2ccccc2N=C(c2ccc3ccccc3c2)CC1c1ccccc1F (stereo not drawn)
- TGI [1]: > 100 µM
- TGI [5]: > 100 µM
- TGI [6]: > 100 µM
- TGI [7]: > 100 µM
- TGI [9]: > 100 µM
- TGI [3]: > 100 µM
- TGI [4]: > 100 µM

Compound: COc1ccc(/C=c2\sc3nnc(CCC(=O)Nc4cccc(C(F)(F)F)c4)n3c2=O)cc1
- TGI [1]: > 100 µM
- TGI [5]: > 100 µM
- TGI [2]: > 100 µM
- TGI [6]: > 100 µM
- TGI [7]: > 100 µM
- TGI [9]: > 100 µM
- TGI [3]: > 100 µM
- TGI [4]: > 100 µM

Compound: COC(=O)CSc1n[nH]c(-c2ccccc2)n1
- TGI [1]: > 100 µM
- TGI [5]: > 100 µM
- TGI [2]: > 100 µM
- TGI [9]: > 100 µM
- TGI [3]: > 100 µM
- TGI [4]: > 100 µM

Compound: S=C(Nc1ccc(Cl)cc1)SC1CCCCC1
- TGI [8]: 47 µM

Compound: COc1cc(-c2ccccc2)c(OC)cc1CCl
- TGI [5]: > 100 µM
- TGI [2]: > 100 µM
- TGI [6]: > 100 µM
- TGI [7]: > 100 µM
- TGI [9]: > 100 µM
- TGI [3]: > 100 µM
- TGI [4]: > 100 µM

Source: PubChem BioAssay (NCI)
